Target: Cyclin-dependent kinase 12 (Homo sapiens, UniProt Q9NYV4)
Experiment: Not found
Description: Not found

Chain of Cyclin-dependent kinase 12 (Q9NYV4 whole entry): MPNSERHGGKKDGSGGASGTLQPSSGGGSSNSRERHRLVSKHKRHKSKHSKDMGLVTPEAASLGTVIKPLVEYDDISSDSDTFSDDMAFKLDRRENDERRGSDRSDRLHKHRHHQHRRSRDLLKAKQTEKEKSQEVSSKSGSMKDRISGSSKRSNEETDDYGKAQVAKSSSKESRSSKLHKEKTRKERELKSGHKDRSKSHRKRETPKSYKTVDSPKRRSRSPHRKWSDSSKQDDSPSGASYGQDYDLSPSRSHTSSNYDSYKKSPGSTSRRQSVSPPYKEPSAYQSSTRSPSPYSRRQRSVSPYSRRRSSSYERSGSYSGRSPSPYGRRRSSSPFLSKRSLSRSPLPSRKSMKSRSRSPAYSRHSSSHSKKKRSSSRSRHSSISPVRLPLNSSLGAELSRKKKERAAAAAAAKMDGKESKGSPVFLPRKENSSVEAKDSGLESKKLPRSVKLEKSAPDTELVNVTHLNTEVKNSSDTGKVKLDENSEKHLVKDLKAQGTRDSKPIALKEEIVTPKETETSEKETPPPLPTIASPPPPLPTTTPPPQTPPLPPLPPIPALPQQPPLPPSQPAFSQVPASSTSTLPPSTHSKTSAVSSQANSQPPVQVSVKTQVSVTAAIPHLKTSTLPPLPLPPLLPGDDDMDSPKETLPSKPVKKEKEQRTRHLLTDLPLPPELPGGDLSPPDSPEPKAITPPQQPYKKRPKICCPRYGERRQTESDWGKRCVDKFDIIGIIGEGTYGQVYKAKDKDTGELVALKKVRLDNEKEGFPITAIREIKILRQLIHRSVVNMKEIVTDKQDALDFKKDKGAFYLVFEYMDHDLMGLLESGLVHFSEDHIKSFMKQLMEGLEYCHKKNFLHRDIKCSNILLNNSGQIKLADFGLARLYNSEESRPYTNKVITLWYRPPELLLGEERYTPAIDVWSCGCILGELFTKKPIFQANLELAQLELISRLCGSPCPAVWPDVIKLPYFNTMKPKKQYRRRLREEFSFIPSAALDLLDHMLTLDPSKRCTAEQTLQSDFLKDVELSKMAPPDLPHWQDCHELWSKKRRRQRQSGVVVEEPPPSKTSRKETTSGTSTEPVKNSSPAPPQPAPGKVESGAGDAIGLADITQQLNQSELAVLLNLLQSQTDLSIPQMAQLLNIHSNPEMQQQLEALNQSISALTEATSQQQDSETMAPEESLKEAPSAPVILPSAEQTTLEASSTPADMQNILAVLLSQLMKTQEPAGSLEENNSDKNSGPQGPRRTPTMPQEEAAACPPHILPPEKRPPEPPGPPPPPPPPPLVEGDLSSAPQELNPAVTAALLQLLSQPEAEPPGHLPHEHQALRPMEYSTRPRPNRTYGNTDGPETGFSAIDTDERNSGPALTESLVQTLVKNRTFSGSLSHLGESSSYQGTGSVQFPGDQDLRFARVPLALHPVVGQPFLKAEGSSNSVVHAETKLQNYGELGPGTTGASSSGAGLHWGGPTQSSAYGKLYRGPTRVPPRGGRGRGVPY

SMILES | IC50
FC(F)N1CC(C2C=NN3C(NCc4nc5cc(Cl)c(Cl)cc5[nH]4)=NC(N4CCOCC4)=NC23)C=N1 (configuration not stated) [US20250042903, Compound 2] | 262 nM
CN1CC(C2C=NN3C(NCc4nc5cc(Cl)c(Cl)cc5[nH]4)=NC(N4CCOCC4)=NC23)C=N1 (configuration not stated) [US20250042903, Compound 1] | 554 nM

— BindingDB's records for patent US20250042903 (H. Lee Moffitt Cancer Center and Research Institute, 2025)
